Source: patent publication US8357655B2, “Wound healing peptides and methods of use thereof” (Tufts University, priority 2008, dated 2013)

Experiments:
Type in all cases: cell-based
[1] = tested on: human epidermal-derived keratinocytes; assay: in vitro wound healing assay, keratinocyte post-injury motility; settings: compared with HbEGF, growth factor known to be migration-inducing in keratinocytes (FIG. 2)
Description: Referring to FIG. 2, an in vitro wound healing assay was performed to compare the wound healing properties of two WHPs, SEQ ID NO: 3 and SEQ ID NO: 9, with a known potentiator of keratinocyte migration, heparin-binding EGF-like growth factor (HbEGF). In these experiments, confluent densities of human epidermal-derived keratinocytes were plated in vitro in defined media lacking WHPs or positive control substances. At time zero, all cultures are wounded mechanically and imaging of wounds was accomplished automatically using computer-assisted light microscope imaging. Cell cultures were injured mechanically by removing defined zones of living cells were then washed and test agents or control substances delivered. Cells recovering from injury were than quantifiably monitored using computer-assisted imaging and light microscopy. Post-injury motility was assessed using the migratory response of untreated injured cultures as a baseline for quantitative comparative analysis. Multiple experiments with multiple replicates are shown, standard deviation with error of the mean.

endothelial cells = assay: endothelial cell proliferation assay; settings: peptide at 1 nM; control cultures in 5% BCS DMEM (FIG. 5)
Description: The WHPs provided herein induce endothelial cell proliferation. […] Endothelial cells were plated at subconfluent concentrations and allowed to attach, then new culture media was provided in the presence or absence of a WHP; control cultures were grown in 5% BCS DMEM.

[2] = tested on: capillary endothelial cells; assay: in vitro wound healing assay, capillary endothelial cell migration; settings: one and two hours post-injury; WHP 0.5 nM to 0.2 mM in DMEM with 1% bovine calf serum; vs control cultures (FIG. 1)
Description: In this assay, capillary endothelial cells were plated on tissue culture plastic and allowed to form a confluent monolayer. The monolayer was mechanically disrupted and non-adherent cells were removed, at which point the WHP was provided at a concentration within the range of sub-nanomolar (0.5 nM) to sub-millimolar (0.2 mM) in tissue culture media (DMEM with 1% bovine calf serum. Control cultures were incubated with serum alone, positive control test substances, e.g. basic fibroblast growth factor (bFGF viz, FGF2) and vascular endothelial growth factor (VEGF) (for capillary-derived endothelial cells); or heparin-binding epidermal-like growth factor (Hb-EGF) (for human skin derived keratinocytes). Other control cultures were incubated with either no peptide or a random peptide without wound healing or proliferative properties. The extent of endothelial cell migration in the WHP and control cultures was observationally determined at various time points following injury (e.g., thirty minutes, one hour, two hours, or more than two hours).

[3] = in vitro injury model, dose dependence; settings: concentrations ranging from 1 to 1000 nM (FIG. 3)
Description: Referring to FIG. 3, the WHPs provided herein act in dose-dependent manner. A WHP, SEQ ID NO: 9, was provided in an in vitro injury model at concentrations ranging from 1 to 1000 nM.

[4] = tested on: capillary endothelial cells; assay: in vitro capillary morphogenesis (angiogenesis) assay; settings: cells embedded in ECM-derived three-dimensional matrix, incubated twenty hours (FIG. 4)
Description: The WHPs provided herein are also useful in the promotion of capillary morphogenesis. […] Specifically, isolated capillary endothelial cells were embedded in an ECM-derived three-dimensional matrix that contained a WHP at a range of concentrations from the nanomolar (nM) to sub-millimolar (mM) (e.g., between 0.5 nM-0.2 mM) and incubated. […] In comparison, negative control cell populations (i.e., cells that were not exposed to a WHP but were exposed to serum containing media, which contains growth factors and other angiogenesis inducers) generally remained as individual cells during this timeframe at this population density.

Row | Substance | keratinocyte post-injury motility [1] | endothelial cell proliferation (endothelial cells) | endothelial cell migration into the wound site [2] | wound healing activity, dose dependence [3] | formation of capillary tube like structures / in vitro angiogenesis [4]
1 | DINECEIGAPAGEETEVTVEGLEPG [SEQ ID NO: 3] | equal or superior to the growth factor | increase in endothelial cell proliferation | – | – | –
2 | DINECELSANL [SEQ ID NO: 9] | equal or superior to the growth factor | increase in endothelial cell proliferation | substantially greater migration into the wound site | dose-dependent | –
3 | bFGF: basic fibroblast growth factor, positive control growth factor | – | – | – | – | able to promote in vitro angiogenesis to a lesser extent than populations treated with a WHP
